The values below come from article PMC3672070, “Novel birch pollen specific immunotherapy formulation based on contiguous overlapping peptides” (Clinical and Translational Allergy, 2013).

Data set [1] deals with rBet v 1 specific IgE in sera from birch pollen allergic patients. In words: Competition ELISA for rBet v 1 specific human IgE. As to conditions: read-out: EC50, inhibition of serum IgE binding to rBet v 1; sera from 6 birch pollen allergic patients (1:5 to 1:10) incubated 1 h with tenfold dilutions of competitor starting at 10^-5 M; rBet v 1 coated plates; '>' = no competitive activity up to this concentration. As for the experimental part: Successively and with washings between steps, plates were incubated 1 h at RT with biotinylated mouse anti-huIgE (Pharmingen, 5 μg/ml, 1 h at RT), Streptavidin-HRP or -alkaline phosphatase (BD, 1:1000 or 1:8000, respectively, 30 min at RT) and TMB (BD OptEIA, ) or 4-NPP. OD were read at 450 nm, 630 nm and 405 nm, respectively. Inhibition of IgE binding to Betv 1 was calculated as: (OD with competitor minus ODmin)/(OD without competitor minus ODmin) × 100, where ODmin was determined in wells without serum.

Data set [2] concerns volunteers allergic to birch pollen. In words: Skin prick testing of birch pollen sensitive volunteers (AN002 phase I clinical trial). As to conditions: 20 volunteers; for skin prick test positive reactions: even at a 10 μM concentration.
Procedure: (§1) The AN002 phase I clinical trial was a single center, open and controlled study conducted at the Centre Hospitalier Universitaire Vaudois (CHUV) in Lausanne. Volunteers (18–45 years) with at least one season history of birch pollen rhinoconjunctivitis or asthma were recruited outside of the birch pollen season. […] The primary objective of the study was to determine the reactogenicity of selected COPs by skin prick tests.
(§2) Individual T1 to T5 COPs, AllerT and T4-T5 mix were evaluated in vivo by skin prick tests following EAACI guidelines [31].
Data set [3] shares this test system. The note with it: human, in vivo.
Procedure: as §1, §2
Data set [4] concerns RBL703/21 cells (RBL transfected with human FcϵRI). In words: Degranulation assay (beta-hexosaminidase release) on humanised basophil cell line RBL703/21. The data set is classed as cell-based, rat. As to conditions: RBL703/21 incubated overnight with sera from ten patients (ImmunoCAP classes 4 to 6); 1 h 37°C. As for the experimental part: The assay was adapted from Ladics et al. and Blanc et al.. RBL cells transfected with human FcϵRI (RBL703/21, kind gift of Dr L. Vogel, Paul-Ehrlich Institute, Germany) were plated at 10^5 cells/well in medium (MEM containing glutamine and penicillin/streptomycin) and incubated overnight with sera from subjects with class 4, 5 and 6 IgE levels to birch pollen extract as determined by ImmunoCAP (Phadia, Uppsala, Sweden). Human serum was diluted 1/2 with 4M glucose and incubated for 45 min at 56°C, centrifuged and diluted 1/5 with MEM medium before addition to RBL703/21 cells. […] Supernatants (30 μl) were incubated in duplicates with 50 μl of substrate solution (1.3 mg/ml p-nitrophenyl-b-D-2-acetamido-2-deoxyglucopyranozide from Sigma in 0.1 M citrate pH 4.5) for 1 hour at 37°C. Reaction was stopped by the addition of 100 μl of 0.2 M glycin (pH 10.7). OD was measured at 405 nm (reference filter at 620 nm). β-hexosaminidase release was calculated using the following formula: (OD sample-ODbuffer) / (ODanti-IgE-ODbuffer) × 100.

Data set [5] deals with RBL-2H3 cells. In words: Degranulation assay (beta-hexosaminidase release) on rat basophil line RBL-2H3 loaded with sera from rBet v 1-sensitized mice. In kind it is cell-based. As for the experimental part:
Degranulation assay was performed as previously described. RBL-2H3 cells were plated in 96-well tissue culture plates (4×10^4 cells/well) overnight. Passive sensitization of RBL-2H3 cells was carried out with sera from rBet v 1-sensitized mice at a final dilution of 1:30 for 2 h. Unbound antibodies were removed by washing the cell layer twice in Hanks’ balanced salt solution (Sigma-Aldrich, St-Louis, MO, USA). […] The reaction was stopped by addition of 100 μl glycine buffer (0.2M glycine, 0.2M NaCl, pH 10.7) and optical densities (OD) measured at 405 nm.

The mark [6] stands for this setting: dilution 1:1 of the concentration given (COPs and mixes 10 μM, rBet v 1 1 μM, birch 100’000 SQ), EAACI guidelines.
Where [7] appears, read: dilution 1:1 of the concentration given in the row (10 μM).
Where [8] appears, read: dilution 1:100 of the concentration given.

Like-named read-outs stand apart in the source and are kept apart here. Ends that are not written are not given here.

As to “NGGPGTIKKISFPEGFPFKYVKDRVDEVDHTNFKYNYSVIEGGPIGDTLEKISNEIKIVATPDGGSILKIS [T2]”, the EC50 in data set [1] is above 10 µM. The “Positive skin reactions (≥3 mm wheal and flare present), number of volunteers” value (“Positive skin reactions” below) in data set [2] (setting [6]), in data set [2] (dilution 1:10) and in data set [2] (setting [8]) was 0 throughout. Further, the “0 mm <Skin reaction < 3 mm (sub-threshold), number of volunteers” value (from here on “0 mm <Skin reaction < 3 mm”) in data set [2] (setting [7]), in data set [2] (dilution 1:10) and in data set [2] (setting [8]) was 0 in each case. Also, the “skin prick test positive reactions” value in data set [2] is “unable to elicit skin prick test positive reactions”.
As to “GVFNYETETTSVIPAARLFKAFILDGDNLFPKVAPQAISSVENIEGNGG [T1]”, in data set [1], the concentration giving a half-maximal response (EC50) was above 10 µM. Besides, the “Positive skin reactions” value in data set [2] (setting [6]), in data set [2] (dilution 1:10) and in data set [2] (setting [8]) was 0 throughout. The “0 mm <Skin reaction < 3 mm” value in data set [2] (dilution 1:10) and in data set [2] (setting [8]) was 0 in each case. The “skin prick test positive reactions” value in data set [2] is given as “unable to elicit skin prick test positive reactions”.
As to “VATPDGGSILKISNKYHTKGDHEVKAEQVKASKEMGETLLRAVESYLLAHSDAYN [T3]”, in data set [3], the “Positive skin reactions” value was 0. The EC50 in data set [1] was above 10 µM.
Turning to “GVFNYETETTSVIPAARLFKAFILDGDNLFPKVAPQAISSVENIEGNGGPGTIKKISFPEGFPFKYVKDRVDEVDHTNFKYNYS [T4]”, the EC50 in data set [1] is above 10 µM. The “Positive skin reactions” value in data set [2] (setting [6]), in data set [2] (dilution 1:10) and in data set [2] (setting [8]) was 0 each time. For the same molecule, the “0 mm <Skin reaction < 3 mm” value in data set [2] (setting [7]) came out at 0; in data set [2] (dilution 1:10), 0; in data set [2] (setting [8]), 1.

B1: rBet v 1: recombinant major birch pollen allergen Bet v 1 (BIOMAY, Vienna, Austria) (protein, UniProt P15494 2-160, looked up)
Major pollen allergen Bet v …: GVFNYETETTSVIPAARLFKAFILDGDNLFPKVAPQAISSVENIEGNGGPGTIKKISFPEGFPFKYVKDRVDEVDHTNFKYNYSVIEGGPIGDTLEKISNEIKIVATPDGGSILKISNKYHTKGDHEVKAEQVKASKEMGETLLRAVESYLLAHSDAYN
Take B1: in data set [4], the “dose at which maximal degranulation response was reached” value is reported as 10^-9 M. Moreover, the “optimal rBet v 1 concentration for hexosaminidase release” value in data set [5] (RBL-2H3 loaded with sera from rBet v 1-sensitized mice, serial concentrations) worked out at 0.57 nM. In data set [5] (RBL-2H3 primed with sera from Bet v 1-sensitized mice (1:30), stimulation 1 h 37°C, COPs and AllerT at 5.7 nM (n=10) and 57 nM (n=3), OD 405 nm), the hexosaminidase release result is “accumulated significantly”. Also, the “positive skin prick reactions, share of patients” value in data set [2] (allergen concentration lowered by 10 fold (birch 10’000 SQ, rBet v 1 0.1 μM)) was 80%. Besides, the results for the “Positive skin reactions” value in data set [2] (dilution 1:10) and in data set [2] (setting [8]) were 16 and 2, respectively.

B2: T5: Bet v 1-derived synthetic contiguous overlapping peptide, aa 65-160 (peptide, UniProt P15494 65-160, looked up, fragment)
chain: FKYVKDRVDEVDHTNFKYNYSVIEGGPIGDTLEKISNEIKIVATPDGGSILKISNKYHTKGDHEVKAEQVKASKEMGETLLRAVESYLLAHSDAYN
As for B2, in data set [1], the EC50 was above 10 µM. Further, the “Positive skin reactions” value in data set [2] (setting [6]), in data set [2] (dilution 1:10) and in data set [2] (setting [8]) was 0 each time. For the same molecule, the “0 mm <Skin reaction < 3 mm” value in data set [2] (dilution 1:10) and in data set [2] (setting [8]) was 0 each time.
